The source of these data is US11866424B2, “Aggregation-induced emission luminogens for photodynamic therapy” (The Hong Kong University of Science and Technology, priority 2020, dated 2024).

Data set [1] in a line: UV-Vis and photoluminescence spectroscopy (optical properties, AIE characteristics). Format: physicochemical. To be noted: for λabs: Absorption maximum in DMSO (TFPy and TPE-TFPy) and H2O (TFVP) solution, 10 μM; for λem (Soln.): Emission maximum in DMSO (TFPy and TPE-TFPy) and H2O (TFVP) solution at 10 μM; for ΦF (Aggr.) / ΦF (Soln.) / ΦF (Solid.): Fluorescence quantum yield; for ΦF (Aggr.): aggregation state in 5% DMSO + 95% Toluene or 5% H2O + 95% THF (TFVP); for ΦF (Soln.): calibrated integrating sphere, DMSO (TFPy, TPE-TFPy) or H2O (TFVP) solution; for ΦF (Solid.) / stokes shifts / λem (Solid.): solid state; for λem (Aggr.): aggregation state in 5% DMSO + 95% Toluene (TFPy and TPE-TFPy) or 5% H2O + 95% THF (TFVP); for Iaggr,max/Isoln: emission intensity in 5% DMSO + 95% Toluene (TFPy, TPE-TFPy) or 5% H2O + 95% THF (TFVP) relative to solution; for ε: solution. From the text:
All the chemicals were purchased from Meryer, J&K, or Sigma as received without further purification. Superdry (99.9%) DCM and methanol with molecular sieves were purchased from J&K Scientific. Toluene was distilled from sodium and benzophenone under nitrogen prior to use. Phosphate buffered saline (PBS) was purchased from Thermo Fisher Scientific. ABDA, Ce6 and Rose Bengal were purchased from Sigma-Aldrich and used as received. Cell culture medium and fetal bovine serum (FBS) were purchased from GIBCO (Gran Island, NY, USA). Mitotracker Green, CellMask Green, and LysoTracker Green were purchased from ThermoFisherScientific. 1H NMR (400 MHz), 13C NMR (100 MHz) spectra were recorded on a Bruker ARX 400 Spectrometer with CDCl3 or d6-DMSO as deuterated solvent. High resolution mass spectra (HRMS) were performed on a Finnigan MAT TAQ 7000 mass spectrometer system operating in matrix-assisted laser desorption/ionization time of flight mass spectrometry (MALDI-TOF) mode. UV-Vis absorption and fluorescence spectra were recorded with Milton Roy Spectronic 3000 array spectrophotometer. Fluorescence images of AIEgens in solution and aggregation state were collected on an Olympus BX 41 fluorescence microscope. Cellular fluorescence images were taken using a Zeiss laser scanning confocal microscope (LSM7 DUO) and analyzed using ZEN 2009 software (Carl Zeiss). Theoretical study was carried out on 6-311G* basis set in Gaussian09 using density functional theory (DFT) approximated by ωB97X-D.
The photophysical properties of TFPy, TFVP and TPE-TFPy were characterized by UV-Vis and photoluminescence spectroscopies at the concentration of 10 μM as shown in FIG. 2 and summarized in Table 1. […] Due to different solubility behavior, the AIE characteristics of TFPy and TPE-TFPy were investigated in DMSO/toluene mixture with different toluene fractions, whereas TFVP was measured in H2O/THF mixture (FIGS. 2C and 2D, FIG. 8). Taking TFVP as an example, TFVP was barely emissive when fully dissolved in water. Upon increasing THF fraction, fluorescence emission intensity got boosted accordingly with a 218-time increment when THF fraction reached 95%. […] In addition, upon the increase of THF or toluene as poor solvent, the emission wavelengths of three AIEgens were blue-shifted owing to the decrease of solvent polarity, manifesting TICT attributes, which is again ascribed to their D-A feature.

The nature of data set [2]: ROS generation measurement with ABDA indicator under white light. To be noted: 1 μM sample, 10 μM ABDA, DMSO/water 1/100, white light 4.2 mW·cm^−2, up to 6 min; compared with Ce6 and Rose Bengal. On the procedure:
9,10-Anthracenediyl-bis(methylene)dimalonic acid (ABDA) was employed to detect ROS generation of TFPy, TFVP, TPE-TFPy, and two commercial standard photosensitizer, Rose Bengal, and Ce6 upon light irradiation. The absorbance of each sample (1 μM) was firstly set as blank. Then, 10 μM of ABDA was mixed to each sample (DMSO/water (v:v)=1/100) in a dark room, and the absorbance of sample was measured at once. The sample mixture was then irradiated under white light (4.2 mW/cm^−2) at intervals of 1 min until 6 min. The absorption of ABDA at 378 nm was recorded at various irradiation times to obtain the decay rate of photosensitizing process. The absorbance change of ABDA alone in 6 min light irradiation time was also measured as control.
Preliminary study was conducted by evaluating capability of ROS generation of three AIEgens. 9,10-Anthracenediyl-bis-(methylene)-dimalonic acid (ABDA) whose absorption will decrease once oxidized by ROS was utilized as an indicator. […] Ce6 and Rose Bangel, two well-known commercially available standard photosensitizers, were engaged as comparison.

The test system of the next data set is HeLa cells. Briefly: HeLa cell imaging / co-localization with commercial organelle probes (CLSM). The class given is cell-based. To be noted: for subcellular organelle visualized after incubation: CLSM, excitation 488 nm; for Pearson's coefficient (co-localization efficiency): co-staining with MitoTracker Green (TFPy), CellMask Green (TFVP), LysoTracker Green (TPE-TFPy). On the procedure: Hela cells were seeded and cultured at 37° C. in a 35 mm glass-bottomed dish. After incubation with TFPy (1 μM), TFVP (5 μM), or TPE-TFPy (2 μM), the cells were washed with PBS three times and subjected to imaging analysis using a Zeiss Laser Scanning Confocal Microscope. All of three AIEgens can be excited with 488 nm filter and the emission filter was 570-740 nm. For co-staining assay, the TFPy, TFVP, and TPE-TFPy loaded Hela cells were subjected to incubation with MitoTracker Green, CellMask Green, and LysoTracker Green, respectively. Hoechst 33258 (5 μM) was also utilized to stain nuclear DNA to assist visualizing. Afterwards, the cells were washed with PBS and then observed with CLSM. The cells were imaged using appropriate excitation and emission filters for each dye. The co-localization efficiency was analyzed with Olympus FV10-ASW software, in which the calculated Pearson's coefficient was 0.90 for TFPy, 0.91 for TFVP, and 0.90 for TPE-TFPy. A stock solution of three AIEgens comprising of 1 μM TFPy, 10 μM TFVP, and 1 μM TPE-TFPy was utilized to incubate with Hela cells, followed by imaging analysis excited with 488 nm filter.
In vitro cellular imaging was carried out to evaluate their subcellular organelle targeting property by confocal laser scanning microscopy (CLSM) using HeLa cell as model cell line. Thanks to the analogous maximum absorption of three AIEgens, fluorescence images can be acquired simultaneously using the same excitation at 488 nm. […] Besides, when HeLa cells were cultured with these three AIEgens simultaneously, all of mitochondria, cell membrane and lysosome were highly emissive (FIG. 3D). It was inferred that the mitochondria-staining behavior of TFPy could be attributed to its high efficiency of electrophoretic transmembrane migration, as well as appropriate binding ability between positively charged pyridinium moiety and the negatively charged interior of the transmembrane potential of mitochondria. The low permeability coefficients resulted from the quite high free energy barrier of TFVP at membrane center could lead to its specific accumulation. In the case of TPE-TFPy, it tends to form nano-sized aggregates in culture media due to the high hydrophobicity, and the in-situ generated aggregates can internalize into lysosome of HeLa cells through endocytosis and specifically light up lysosome upon photoexcitation.

The test system of the next data set is 4T1 cells. Briefly: 4T1 cell imaging / co-localization with commercial organelle probes. To be noted: for organelle towards which strong affinity is exhibited: 4T1 cell line; for Pearson's coefficient (co-localization): 4T1 cells, co-staining with commercial probes. The class given is cell-based. How it is done: Similar co-staining procedure for Hela cell was applied on 4T1 cell. The calculated Pearson's coefficient was 0.90 for TFPy, 0.91 for TFVP, and 0.90 for TPE-TFPy.
Motivated by the excellent targetability and specificity of three diverse organelle-targeting AIEgens, photostability was also carefully investigated as it is an essential parameter to evaluate a fluorescence imaging agent. Photostability assessment was carried out by continuous irradiation and sequential scanning with confocal microscope. […] With HeLa cell imaging and photostability data in hand, additional cellular uptake experiment using 4T1 cell line was performed as preliminary study for in vivo experiment.

The next data set relates to HeLa cell. As to the kind of experiment: MTT cytotoxicity / PDT assay, HeLa cell line. The class given is cell-based. To be noted: 5 μM, white light 20 min (20 mW/cm^2). On the procedure: 3-(4,5-Dimethylthiazol-2-yl)-2,5-diphenyltetrazolium bromide (MTT) assay was utilized to quantitatively measure the cytotoxicity of TFPy, TFVP, TPE-TFPy, and three in one group based on both Hela cell line and 4T1 cell line. The three in one group was consist of one third concentration of TFPy, TFVP, and TPE-TFPY. Both cancer cell lines were seeded in DMEM media in a 96-well round-bottom microplate with a density of 1×10^4 cells per well. The AIEgens (TFPy, TFVP, TPE-TFPy, and three in one) were added at different concentrations of 0, 0.25, 0.5, 1, 2.5, and 5 μM after replacing the medium, and was incubated with different cell lines respectively for 20 min, followed by irradiation with white light for 20 min (20 mW/cm^2); and another array of plates with cells were kept in the dark as control. After 24 h incubation, 10 uL MTT (5 mg/mL in PBS) was added into each well. 4 hours later, DMSO was added into wells to dissolve the precipitated formazan. Finally, the absorption of each well at 595 nm was recorded via a plate reader (Perkin-Elmer Victor3™). Each trial was performed with 6 wells in parallel.
Cytotoxicity of photosensitizer is a non-negligible factor to take into consideration. […] Consequently, quantitative evaluation of PDT effect was applied on both HeLa Cell and 4T1 cell line through standard methylthiazolyldiphenyltetrazolium bromide (MTT) assay. Each AIEgen and an experimental group named “three in one” were evaluated. The “three in one” group was comprised of one third concentration of each AIEgen (⅓ TFPy, ⅓ TFVP, and ⅓ TPE-TFPy) to assure the overall concentration as same as other experimental groups. […] However, upon irradiation with light for 20 min, HeLa cell suffered severe viability loss with only 10% remained when the “three in one” group was at a concentration of 2.5 μM (FIG. 5C).

With `C[n+]1ccc(C=Cc2ccc(-c3ccc(N(c4ccccc4)c4ccccc4)cc3)o2)cc1.F[P-](F)(F)(F)(F)F` [TFPy], in data set [1], the λabs is given as 485 nm, the “λem (Soln.)” value was found to be 686 nm, the “ΦF (Aggr.)” value is reported as 10% and the “ΦF (Soln.)” value was 0.4%. Further, in data set [1], the “ΦF (Solid.)” value was found to be 0.5%, the “λem (Aggr.)” value came to 660 nm, the “Iaggr,max/Isoln” value is 12.6 and the stokes shifts entry is listed as “ca. 200 nm”. Moreover, in data set [1], the “λem (Solid.)” value turned out to be 672 nm and the ε was 27000 M⁻¹ cm⁻¹. Moreover, the “ROS generation efficacy (decrease of ABDA absorption at 378 nm)” value in data set [2] is listed as “better than Ce6, but not as efficient as Rose B angel”. In addition, in the data set with HeLa cells, the “subcellular organelle visualized after incubation” value (shortened to “subcellular organelle visualized”) was “mitochondria” and the “Pearson's coefficient (co-localization efficiency)” value is reported as 0.90. Besides, in the data set with 4T1 cells, the “organelle towards which strong affinity is exhibited” value is listed as “mitochondria” and the “Pearson's coefficient (co-localization)” value was 0.90. The “cell viability upon light irradiation” value with HeLa cell is reported as 58%.
Turning to `C[N+](C)(C)CCC[n+]1ccc(C=Cc2ccc(-c3ccc(N(c4ccccc4)c4ccccc4)cc3)o2)cc1.[Br-].[Br-]` [TFVP], in data set [1], the λabs was 492 nm, the “λem (Soln.)” value was determined as 675 nm, the “ΦF (Aggr.)” value stood at 5% and the “ΦF (Soln.)” value was found to be 0.4%. Further, in data set [1], the “ΦF (Solid.)” value stood at 0.6%, the “λem (Aggr.)” value is on record as 672 nm, the “Iaggr,max/Isoln” value is reported as 218 and the stokes shifts result is recorded as “ca. 200 nm”. Also, in data set [1], the “λem (Solid.)” value was determined as 690 nm and the ε was found to be 28000 M⁻¹ cm⁻¹. For the same compound, the “ROS generation efficacy (decrease of ABDA absorption at 378 nm)” value in data set [2] is reported as “better than Ce6, but not as efficient as Rose B angel”. In the data set with HeLa cells, the “subcellular organelle visualized” value is “cell membrane” and the “Pearson's coefficient (co-localization efficiency)” value amounted to 0.91. Besides, in the data set with 4T1 cells, the “organelle towards which strong affinity is exhibited” value is listed as “cellular membrane” and the “Pearson's coefficient (co-localization)” value was found to be 0.91. The “cell viability upon light irradiation” value in the data set with HeLa cell amounted to 53%.
In the case of `C[n+]1ccc(C=Cc2ccc(-c3ccc(N(c4ccccc4)c4ccc(C(=C(c5ccccc5)c5ccccc5)c5ccccc5)cc4)cc3)o2)cc1.F[P-](F)(F)(F)(F)F` [TPE-TFPy], in data set [1], the λabs was determined as 490 nm, the “λem (Soln.)” value amounted to 672 nm, the “ΦF (Aggr.)” value stood at 4.2% and the “ΦF (Soln.)” value came to 0.5%. For the same compound, in data set [1], the “ΦF (Solid.)” value amounted to 1.1%, the “λem (Aggr.)” value stood at 664 nm, the “Iaggr,max/Isoln” value came to 26.4 and the stokes shifts result is given as “ca. 200 nm”. In addition, in data set [1], the “λem (Solid.)” value is on record as 683 nm and the ε was 31000 M⁻¹ cm⁻¹. Further, the “ROS generation efficacy (decrease of ABDA absorption at 378 nm)” value in data set [2] is “much higher than Rose Bangel”. Further, in the data set with HeLa cells, the “subcellular organelle visualized” value is given as “lyso some” and the “Pearson's coefficient (co-localization efficiency)” value came to 0.90. In the data set with 4T1 cells, the “organelle towards which strong affinity is exhibited” value was “lysosome” and the “Pearson's coefficient (co-localization)” value is recorded as 0.90. For the same compound, the “cell viability upon light irradiation” value in the data set on HeLa cell is on record as 15%.
